The text below walks through data of patent US7803801B2, “Aminopyridine compounds having Syk inhibitory activity” (Japan Tobacco, Inc., priority 2005, dated 2010).

For assay [1], the target named is GST-Syk Full Protein (human) (Homo sapiens, UniProt P43405). The experiment in a line: Syk kinase inhibition test (HTRF method). In kind it is biochemical. To be noted: HTRF, 100 μM ATP, 30 min room temperature, average; read-out: sykHTRF ave IC50. In a few lines:
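Human GST-Syk full-length (6.4 nM) phosphorylated biotin-EDPDYEWPSA-NH2 (250 nM) with 100 μM ATP in HEPES pH 7.0/MgCl2 buffer, 2% DMSO, 30 min at room temperature. EDTA stop, then HTRF detection (streptavidin-XL665, Eu anti-phosphotyrosine) after 1 h; 665/620 ratio read.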

For assay [2], the system named is cultured human mast cells. The experiment in a line: Degranulation inhibition test using cultured human mast cells (IgE cross-linking, β-Hexosaminidase release). In kind it is cell-based. To be noted: Mast cell; cultured human mast cells, anti-hIgE stimulation, β-Hexosaminidase index, average; read-out: human degranulation ave. IC50. The protocol: Degranulation Inhibition Test Using Cultured Human Mast Cells
(1) Separation of Hematopoietic Stem Cells;
After 10 to 60 mL of umbilical cord blood collected with heparin was diluted with an equivalent amount of buffer (0.5% BSA, 2 mM EDTA/PBS-), it was superposed on Ficoll-Paque (Amersham Pharmacia Biotech) (Ficoll/Blood (1:2)) and mononuclear leukocyte fraction was collected by centrifuging it at 400 G (1350 rpm) 4° C. for 30 minutes. After centrifugal washing (1500 rpm, 5 min, 4° C.×3) with buffer, the number of cells was counted and 0.1 mL of CD34 Progenitor Cell Isolation Kit (Miltenyi Biotec), Reagent A1 (Fc blocking) was added for 1×10^8 cells. After agitation, 0.1 mL of Reagent A2 (CD34 antibody-hapten) was added (final volume 0.5 mL/1×10^8 cells) and incubated at 9° C. for further 15 minutes after agitation. After centrifugal washing (1500 rpm, 5 min, 4° C.×3), it was resuspeded in a buffer (0.4 mL) and 0.1 mL of Reagent B (anti hapten antibody-microbeads) was added and agitated (final volume 0.5 mL/1×10^8 cells) and incubated at 9° C. for further 15 minutes. After centrifugal washing (1500 rpm, 5 min, 4° C.×2), it was resuspeded in a buffer (0.5 mL) and loaded on CS column (Miltenyi Biotec) set in MACS (MAgnetic Cell Sorting system; Miltenyi Biotec, Daiichi Pure Chemicals) and washed with 30 mL of buffer to remove CD34^− cells. The column was separated from MACS and eluted with 30 mL of buffer and CD34^+ cells bound to the column were collected and used as a hematopoietic stem cell population.
(2) Acquisition of Human Mast Cells by Long-Term Culturing of Hematopoietic Stem Cells;
The CD34^+ cells separated in (1) were resuspended in Iscove's Modified Dulbecco's Medium (IMDM, Gibco) containing human (rh)SCF (1 μg/mL, Peprotech), rhIL-6 (0.5 μg/mL, Peprotech), rhIL-3 (10 ng/mL, Peprotech), 1% Insulin-Transferrin (Gibco), 5×10^−5M 2-ME (Gibco), 0.1% BSA (Sigma) in a density of 1×10^6 cells/ml and disseminated on 24-well culture plate with a dose of 0.1 mL/well and 0.9 ml of IMDM (Methocult SF^BIT StemCell technology) containing 0.9% methyl cellulose was added and culturing was started. The above culture medium (excluding methyl cellulose) was added in a week and after that 100 μL/well of the above culture medium (further excluding IL-3) was added at an interval of every once a week so that cells were diluted to maintain 10^5 cells/mL/well order and cultured more than about 8 weeks and thereby human culture mast cells were obtained.
(3) Expression Enhancement of FcεRI and Inhibition Test IgE Cross-Linking Stimulating Degranulation;
rhIL-4 (final concentration 1 ng/mL, R & D) and Homo sapiens(h) IgE (final concentration 0.5 μg/mL, CHEMICON) were added to the obtained human culture mast cells, and they were incubated for 5 days to enhance the expression of FcεRI. After incubation, cells were collected and, after centrifugal washing (IMDM), they were disseminated on 96-well culture plate in 5×10^4 cells/80 μL/well.
10 μL of a compound 10-fold diluted with IMDM after dissolved in DMSO (DMSO final concentration 0.1%) was added and reacted at 37° C. for 10 minutes. Further, 10 μL of anti-hIgE Ab (CHEMICON) adjusted to 100 μg/mL (final concentration 10 μg/mL) was added and degranulation was caused by being stimulated at 37° C. for 30 minutes. After centrifugation, 50 μL/well of the supernatant was collected and stored at −40° C. untill the quantity of degranulation was measured. The measurement of quantity of degranulation was performed using enzymatic activity of β-Hexosaminidase contained in the granulates as an index. That is, an equivalent amount of p-nitrophenyl-N-acetyl-β-D-glucosaminide (1 mM) (containing 0.1% Triton X-100) which is a substrate of β-Hexosaminidase was added to 50 μL of the culture filtrate, and after reacted at 37° C. for 2 hours, the reaction was terminated by using 100 μL of Carbonate buffer (0.1M, pH 10). […]

The structures appear in SMILES notation.

Regarding `CC(=O)N[C@@H](CO)c1ncc(-c2cccc(Nc3cc(C)ccn3)n2)s1` [Compound A-59], the IC50 in assay [1] and in assay [2] was 100 to 1000 nM throughout.

Take `Cc1ccnc(Nc2cccc(-c3cnc(C4CCC(=O)CC4)s3)n2)c1` [Compound A-60]: the IC50 in assay [1] and in assay [2] was 100 to 1000 nM throughout.

Regarding `Cc1ccnc(Nc2cccc(-c3cnc(C(=O)N4CCCC(O)C4)s3)n2)c1` (centres unmarked) [Compound A-61], the half-maximal inhibitory concentration (IC50) in assay [1] and in assay [2] was 100 to 1000 nM in each case.

As for `Cc1ccnc(Nc2cccc(-c3cnc(C(=O)NCC(C)(C)CO)s3)n2)c1` [Compound A-62], the IC50 in assay [1] was 100 to 1000 nM; in assay [2] it was over 1000 nM.

As for `CC(=O)NCCCC[C@H](NC(C)=O)c1ncc(-c2cccc(Nc3cc(C)ccn3)n2)s1` [Compound A-64], the IC50 in assay [1] and in assay [2] was 100 to 1000 nM in each case.

Consider `Cc1ccnc(Nc2cccc(-c3cnc([C@H](C)NC(C)C)s3)n2)c1` [Compound A-65], for which the IC50 in assay [1] and in assay [2] was 100 to 1000 nM throughout.

`Cc1ccnc(Nc2cccc(-c3cnc(C(=O)NCC(C)O)s3)n2)c1` (centres unmarked) [Compound A-66]: the results for the IC50 in assay [1] and in assay [2] were 100 to 1000 nM and over 1000 nM, respectively.

Regarding `Cc1ccnc(Nc2cccc(-c3cnc(C(=O)NC4CCCCC4O)s3)n2)c1` (centres unmarked) [Compound A-67], the figures for the IC50 in assay [1] and in assay [2] were 100 to 1000 nM and over 1000 nM, respectively.

In the case of `COC(=O)CCCCc1ncc(-c2cccc(Nc3cc(C)ccn3)n2)s1` [Compound A-68], the IC50 in assay [1] is 100 to 1000 nM; in assay [2], over 1000 nM.

In the case of `Cc1ccnc(Nc2cccc(-c3cnc(CCCCC(=O)O)s3)n2)c1` [Compound A-69, 5-{5-[6-(4-methylpyridin-2-ylamino)pyridin-2-yl]thiazol-2-yl}pentanoic acid], the IC50 in assay [1] was under 100 nM; in assay [2], over 1000 nM.

Consider `Cc1ccnc(Nc2cccc(-c3cnc(CCCCCO)s3)n2)c1` [Compound A-70, 5-{5-[6-(4-methylpyridin-2-ylamino)pyridin-2-yl]thiazol-2-yl}pentan-1-ol], for which the IC50 in assay [1] is under 100 nM; in assay [2] it was 100 to 1000 nM.

For the molecule `Cc1ccnc(Nc2cccc(-c3cnc(CCCCC(N)=O)s3)n2)c1` [Compound A-71, 5-{5-[6-(4-methylpyridin-2-ylamino)pyridin-2-yl]thiazol-2-yl}pentanamide], the IC50 was under 100 nM in assay [1] and 100 to 1000 nM in assay [2].

Take `Cc1ccnc(Nc2cccc(-c3cnc(C(=O)NC(CO)CO)s3)n2)c1` [Compound A-72]: the IC50 in assay [1] was 100 to 1000 nM; in assay [2] it was over 1000 nM.

On to `Cc1ccnc(Nc2cccc(-c3cnc(C4CCC(O)CC4)s3)n2)c1` (centres unmarked) [Compound A-73, 4-{5-[6-(4-methylpyridin-2-ylamino)pyridin-2-yl]thiazol-2-yl}cyclohexanol], for which the IC50 was under 100 nM in assay [1] and 100 to 1000 nM in assay [2].

For the molecule `Cc1ccnc(Nc2cccc(-c3cnc(C4CCC(=NO)CC4)s3)n2)c1` (centres unmarked) [Compound A-74, 4-{5-[6-(4-methylpyridin-2-ylamino)pyridin-2-yl]thiazol-2-yl}cyclohexanone oxime], the IC50 was under 100 nM in assay [1] and over 1000 nM in assay [2].

For the molecule `C[C@H](N)c1ncc(-c2cccc(Nc3cc(-c4ccncc4)ccn3)n2)s1` [Compound A-75, N-{6-[2-((S)-1-aminoethyl)thiazol-5-yl]pyridin-2-yl}-N-([4,4′]bipyridinyl-2-yl)amine], the results for the IC50 in assay [1] and in assay [2] were under 100 nM and 100 to 1000 nM, respectively.

On to `COc1ccnc(Nc2cccc(-c3cnc([C@H](C)N)s3)n2)c1` [Compound A-76], for which the IC50 in assay [1] and in assay [2] was 100 to 1000 nM each time.

For the molecule `COc1ccnc(Nc2cccc(-c3cnc([C@H](C)NC(C)=O)s3)n2)c1` [Compound A-77], the IC50 in assay [1] and in assay [2] was 100 to 1000 nM in each case.

Take `Cc1ccnc(Nc2cccc(-c3cnc([C@@H](O)CO)s3)n2)c1` [Compound A-78]: the IC50 in assay [1] and in assay [2] was 100 to 1000 nM in each case.
